Structures are written as SMILES.

For one assay, the target named is T1, IKZF1 (Homo sapiens, UniProt Q13422+Q96SW2).
T1 construct: expressed in transfected cells
In words: HiBiT protein tagging assay, in vitro IKZF1 degradation (HEK293). The assay is classed as cell-based. The following applies: HEK293, 18-24 hr incubation, normalized to DMSO control; for DC50: read-out: IKZF1 EC50; for Dmax: read-out: IKZF1 Dmax (maximum degradation at the highest concentration tested). As to the method: (§1) In vitro degradation of IKZF1 and IKZF2 was measured using HiBiT protein tagging and detection technology (Promega).
(§2) HiBiT technology (Promega) was used to develop the quantitative assays to measure the cellular IKZFs level by tagging an 11 amino acid HiBit peptides VSGWRLFKKIS (SEQ ID NO:1) to the protein of interest. Reporter plasmids were generated by fusing a linker sequence (GSSGGSSG; SEQ ID NO:2) followed by the HiBiT tag at the C terminus of IKZF1 and IKZF2. The fusion fragments were subsequently cloned into pcDNA5 pcDNA™5/FRT/TO plasmids (Thermo Fisher, cat #V652020) downstream of the Tetracycline operator. The resulting plasmids were co-transfected with pOG44 Flp-Recombinase Expression Vector (Thermo Fisher, cat #V600520) into Flp-In™ T-REx HEK293 line (Thermo Fisher, cat #R78077) and a stable cell pool was selected by adding 100 μg/ml of Hygromycin (Thermo Fisher, cat #10687010). The reporter cell enabled Tet-On inducible reporter expression from a single copy of the integrated gene.
(§3) On Day 1, Cells were grown to ˜80% confluency in TC medium (DMEM Glutamax (Gibco10569), 10% Tet free FBS (Takara 631106), and PenStrep Glutamin (Gibco 10378)) in tissue culture flasks. Doxycycline was then added to a final concentration of 1 μg/ml to induce reporter expression at 37° C. overnight.
(§4) On Day 2, 125 nL of serially-diluted solution of testing compounds were dispensed into 384-well white solid assay plates via ECHO acoustic liquid handler. Cells were lifted by 0.25% Trypsin (Gibco 25200) then pelleted by centrifugation (Beckman Avanti J-E) at 500×g for 5 min. Cell pellets were resuspended in TC medium at the concentration of 3e5/mL and 25 μL of cell suspension were added into each well of compound-spotted plates. The plates were returned to a 37° C. incubator overnight (18-24 hr).
(§5) On Day 3, assay plates were removed from the TC incubator and 25 μL of Nano-Glo lytic detection system (Promega, cat #N3030) was added to each well. Plates were incubated at r.t. for 3 min with shaking, and luminescence was read using an Envision reader (Perkin Elmer).
(§6) All raw data was normalized to DMSO control (final concentration: 0.5%) wells as POC and plotted out for EC50 and Dmax (Maximum degradation at the highest concentration tested in the assay).

Another assay addresses T2, IKZF2 (Homo sapiens, UniProt Q96SW2+Q9UKS7).
T2 construct: expressed in transfected cells
In words: HiBiT protein tagging assay, in vitro IKZF2 degradation (HEK293). The assay is classed as cell-based. The following applies: HEK293, 18-24 hr incubation, normalized to DMSO control; for Dmax: HEK293, HiBiT assay, read-out: IKZF2 Dmax (maximum degradation at the highest concentration tested); for DC50: read-out: IKZF2 EC50. As for the experimental part:
as §1, §2, §3, §4, §5, §6
Background: HiBiT is a short tag that completes a luciferase, so light tracks the accessible tagged protein.

T2 sequence (Q9UKS7 1-500 isoform Q9UKS7-2): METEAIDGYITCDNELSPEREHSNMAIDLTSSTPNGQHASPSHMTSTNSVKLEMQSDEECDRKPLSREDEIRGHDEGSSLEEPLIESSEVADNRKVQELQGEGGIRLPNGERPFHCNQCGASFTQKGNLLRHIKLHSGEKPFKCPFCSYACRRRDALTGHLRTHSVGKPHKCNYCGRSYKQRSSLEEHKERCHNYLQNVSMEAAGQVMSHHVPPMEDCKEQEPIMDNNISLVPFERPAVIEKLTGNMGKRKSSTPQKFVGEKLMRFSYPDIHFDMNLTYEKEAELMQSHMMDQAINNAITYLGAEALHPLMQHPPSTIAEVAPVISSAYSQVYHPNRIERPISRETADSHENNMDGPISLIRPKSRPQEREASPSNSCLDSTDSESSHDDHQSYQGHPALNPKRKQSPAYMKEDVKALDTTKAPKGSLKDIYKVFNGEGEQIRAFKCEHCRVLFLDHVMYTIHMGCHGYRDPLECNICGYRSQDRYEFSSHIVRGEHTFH
T2 sequence (Q96SW2 whole entry): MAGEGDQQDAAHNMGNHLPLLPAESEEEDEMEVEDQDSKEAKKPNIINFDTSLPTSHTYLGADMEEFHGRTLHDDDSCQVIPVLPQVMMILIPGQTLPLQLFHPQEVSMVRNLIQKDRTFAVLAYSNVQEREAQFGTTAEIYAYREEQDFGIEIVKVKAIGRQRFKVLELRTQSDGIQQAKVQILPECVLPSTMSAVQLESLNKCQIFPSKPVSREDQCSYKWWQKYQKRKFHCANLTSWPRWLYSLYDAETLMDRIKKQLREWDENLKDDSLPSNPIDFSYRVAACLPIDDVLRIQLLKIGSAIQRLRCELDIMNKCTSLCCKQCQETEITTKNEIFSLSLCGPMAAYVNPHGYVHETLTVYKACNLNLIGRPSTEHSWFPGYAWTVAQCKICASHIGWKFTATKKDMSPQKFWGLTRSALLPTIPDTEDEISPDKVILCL
T2 sequence (Q16531 whole entry partner): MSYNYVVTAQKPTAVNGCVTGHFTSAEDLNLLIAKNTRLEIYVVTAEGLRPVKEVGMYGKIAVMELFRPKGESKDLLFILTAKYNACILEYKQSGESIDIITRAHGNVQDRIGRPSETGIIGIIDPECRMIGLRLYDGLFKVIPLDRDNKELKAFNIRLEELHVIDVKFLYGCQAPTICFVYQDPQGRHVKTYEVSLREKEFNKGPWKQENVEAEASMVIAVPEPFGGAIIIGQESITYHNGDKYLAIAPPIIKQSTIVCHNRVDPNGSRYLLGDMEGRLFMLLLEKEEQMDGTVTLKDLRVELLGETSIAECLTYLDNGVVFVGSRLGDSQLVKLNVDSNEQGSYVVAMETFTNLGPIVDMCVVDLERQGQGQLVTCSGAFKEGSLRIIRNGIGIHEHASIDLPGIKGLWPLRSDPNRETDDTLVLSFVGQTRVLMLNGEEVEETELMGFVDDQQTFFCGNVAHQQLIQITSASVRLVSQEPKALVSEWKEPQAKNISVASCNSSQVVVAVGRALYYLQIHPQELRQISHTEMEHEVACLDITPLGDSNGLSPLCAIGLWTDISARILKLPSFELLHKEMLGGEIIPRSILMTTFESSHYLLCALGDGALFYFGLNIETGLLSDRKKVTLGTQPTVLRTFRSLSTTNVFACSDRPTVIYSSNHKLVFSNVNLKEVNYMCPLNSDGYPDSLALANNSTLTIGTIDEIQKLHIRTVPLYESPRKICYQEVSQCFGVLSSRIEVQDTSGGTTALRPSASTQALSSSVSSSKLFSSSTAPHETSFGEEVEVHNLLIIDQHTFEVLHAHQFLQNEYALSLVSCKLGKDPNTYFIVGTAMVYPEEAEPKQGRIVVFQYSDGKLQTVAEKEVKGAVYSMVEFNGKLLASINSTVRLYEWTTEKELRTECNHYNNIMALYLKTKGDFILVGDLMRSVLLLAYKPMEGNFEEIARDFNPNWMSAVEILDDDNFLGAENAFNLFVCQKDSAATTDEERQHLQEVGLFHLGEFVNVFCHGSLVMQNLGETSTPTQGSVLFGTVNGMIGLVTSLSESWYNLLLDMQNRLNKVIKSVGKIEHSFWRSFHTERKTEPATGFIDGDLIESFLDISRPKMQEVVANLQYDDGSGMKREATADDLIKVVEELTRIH
T1 sequence (Q13422 whole entry): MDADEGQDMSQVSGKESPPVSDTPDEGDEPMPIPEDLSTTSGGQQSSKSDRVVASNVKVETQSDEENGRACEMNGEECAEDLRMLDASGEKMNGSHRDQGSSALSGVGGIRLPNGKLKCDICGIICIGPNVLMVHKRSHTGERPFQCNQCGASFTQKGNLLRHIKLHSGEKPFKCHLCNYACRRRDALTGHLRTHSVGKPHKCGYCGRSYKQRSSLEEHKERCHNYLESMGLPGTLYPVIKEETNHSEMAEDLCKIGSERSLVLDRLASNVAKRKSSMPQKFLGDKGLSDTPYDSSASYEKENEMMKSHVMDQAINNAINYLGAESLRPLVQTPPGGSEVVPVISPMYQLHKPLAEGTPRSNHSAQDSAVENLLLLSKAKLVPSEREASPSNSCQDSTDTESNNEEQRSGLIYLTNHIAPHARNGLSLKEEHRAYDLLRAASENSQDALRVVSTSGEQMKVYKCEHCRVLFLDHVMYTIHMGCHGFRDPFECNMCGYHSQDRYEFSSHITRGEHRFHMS
T1 sequence (Q96SW2 whole entry): as the sequence (Q96SW2 whole entry) above
T1 sequence (Q16531 whole entry partner): as the sequence (Q16531 whole entry partner) above

For `O=C1CCC(N2Cc3cc(CN[C@H]4CCCC[C@H]4CO)ccc3C2=O)C(=O)N1` (stereo partly drawn) [Example 39, 3-(5-((((1S,2R)-2-(hydroxymethyl)cyclohexyl)amino)methyl)-1-oxoisoindolin-2-yl)piperidine-2,6-dione], the results for the DC50 at IKZF1 and on IKZF2 (HiBiT assay) were over 10000 nM and 4100 nM, respectively. Moreover, the Dmax on IKZF2 was found to be 37%.

As to `O=C1CCC(N2Cc3cc(CN[C@@H]4CCCC[C@H]4O)ccc3C2=O)C(=O)N1` (stereo partly drawn) [Example 40, 3-(5-((((1R,2R)-2-hydroxycyclohexyl)amino)methyl)-1-oxoisoindolin-2-yl)piperidine-2,6-dione], the DC50 at IKZF1 is over 10000 nM; at IKZF2 (HiBiT assay), 1200 nM. Further, the Dmax on IKZF2 stood at 38%.

As to `O=C1CCC(N2Cc3cc(CNC4CCC4)ccc3C2=O)C(=O)N1` (stereo not drawn) [Example 41], the Dmax on IKZF1 is 31%; on IKZF2 it was 42%. The DC50 came out at 51 nM on IKZF1 and 373 nM on IKZF2 (HiBiT assay).

As for `O=C1CCC(N2Cc3cc(CNC4CC5CCC4C5)ccc3C2=O)C(=O)N1` (stereo not drawn) [Example 42, 3-(5-((exo-bicyclo[2.2.1]heptan-2-ylamino)methyl)-1-oxoisoindolin-2-yl)piperidine-2,6-dione], the Dmax came to 30% at IKZF1 and 65% on IKZF2. The figures for the DC50 at IKZF1 and at IKZF2 (HiBiT assay) were 85 nM and 193 nM, respectively.

As for `O=C1CCC(N2Cc3cc(CN[C@H]4CCCc5ccccc54)ccc3C2=O)C(=O)N1` (stereo partly drawn) [Example 43, 3-(1-oxo-5-((((S)-1,2,3,4-tetrahydronaphthalen-1-yl)amino)methyl)isoindolin-2-yl)piperidine-2,6-dione], the Dmax at IKZF1 was determined as 71%; on IKZF2 it was 78%. For the same compound, the DC50 was found to be 32 nM at IKZF1 and 64 nM at IKZF2 (HiBiT assay).

As to `O=C1CCC(N2Cc3cc(CNCCc4ccccc4Cl)ccc3C2=O)C(=O)N1` (stereo not drawn) [Example 44, 3-(5-(((2-chlorophenethyl)amino)methyl)-1-oxoisoindolin-2-yl)piperidine-2,6-dione], the Dmax at IKZF1 worked out at 72%; on IKZF2, 32%. Besides, the DC50 on IKZF1 was 38 nM; on IKZF2 (HiBiT assay), 240 nM.

Regarding `O=C1CCC(N2Cc3cc(CN[C@@H]4C[C@H](F)CN(Cc5ccccc5)C4)ccc3C2=O)C(=O)N1` (stereo partly drawn) [Example 45], the Dmax at IKZF1 was 93%; at IKZF2, 84%. In addition, the DC50 worked out at 30 nM on IKZF1 and 182 nM on IKZF2 (HiBiT assay).

As to `C[C@@H]1CCCC[C@@H]1NCc1ccc2c(c1)CN(C1CCC(=O)NC1=O)C2=O` (stereo partly drawn) [Example 46], the Dmax amounted to 36% at IKZF1 and 76% on IKZF2. For the same compound, the DC50 at IKZF1 turned out to be 275 nM; on IKZF2 (HiBiT assay) it was 141 nM.

Consider `C[C@H]1CC[C@H](NCc2ccc3c(c2)CN(C2CCC(=O)NC2=O)C3=O)CC1` (stereo partly drawn) [Example 47], for which the figures for the Dmax at IKZF1 and on IKZF2 were 41% and 82%, respectively. Also, the DC50 at IKZF1 was determined as 189 nM; at IKZF2 (HiBiT assay), 182 nM.

Take `CCN1CCC(NCc2ccc3c(c2)CN(C2CCC(=O)NC2=O)C3=O)CC1` (stereo not drawn) [Example 48, 3-(5-(((1-Ethylpiperidin-4-yl)amino)methyl)-1-oxoisoindolin-2-yl)piperidine-2,6-dione]: the results for the Dmax on IKZF1 and on IKZF2 were 25% and 32%, respectively. Moreover, the DC50 came to 655 nM at IKZF1 and 2800 nM on IKZF2 (HiBiT assay).

Take `O=C1CCC(N2Cc3cc(CNC4CCCC(c5ccccc5)C4)ccc3C2=O)C(=O)N1` (stereo not drawn) [Example 50]: the Dmax was 30% at IKZF1 and 51% at IKZF2. Further, the DC50 was determined as 47 nM at IKZF1 and 166 nM at IKZF2 (HiBiT assay).

As to `C[C@H](CO)NCc1ccc2c(c1)CN(C1CCC(=O)NC1=O)C2=O` (stereo partly drawn) [Example 51, 3-[5-[[[(1R)-2-hydroxy-1-methyl-ethyl]amino]methyl]-1-oxo-isoindolin-2-yl]piperidine-2,6-dione], the values for the Dmax on IKZF1 and on IKZF2 were 36% and 17%, respectively. Moreover, the DC50 at IKZF1 is 263 nM; at IKZF2 (HiBiT assay), 1200 nM.

Turning to `O=C1CCC(N2Cc3cc(CN[C@H](CO)c4ccccc4)ccc3C2=O)C(=O)N1` (stereo partly drawn) [Example 52], the DC50 on IKZF1 is over 10000 nM; at IKZF2 (HiBiT assay), 472 nM. Further, the Dmax at IKZF2 stood at 22%.

As for `C[C@@H](CO)NCc1ccc2c(c1)CN(C1CCC(=O)NC1=O)C2=O` (stereo partly drawn) [Example 53], the Dmax on IKZF1 was found to be 24%; at IKZF2 it was 20%. Also, the DC50 at IKZF1 was 289 nM; at IKZF2 (HiBiT assay), 460 nM.

Take `O=C1CCC(N2Cc3cc(CN[C@H]4C[C@@H](O)C4)ccc3C2=O)C(=O)N1` (stereo partly drawn) [Example 54]: the Dmax on IKZF1 worked out at 28%; on IKZF2, 33%. Further, the figures for the DC50 on IKZF1 and on IKZF2 (HiBiT assay) were 367 nM and 2800 nM, respectively.

Turning to `O=C1CCC(N2Cc3cc(CNCCCO)ccc3C2=O)C(=O)N1` (stereo not drawn) [Example 55], the Dmax stood at 36% at IKZF1 and 20% on IKZF2. In addition, the DC50 at IKZF1 amounted to 394 nM; at IKZF2 (HiBiT assay) it was 1300 nM.

With `O=C1CCC(N2Cc3cc(CN[C@H](CO)Cc4ccccc4)ccc3C2=O)C(=O)N1` (stereo partly drawn) [Example 56], the Dmax on IKZF1 was 23%; at IKZF2, 22%. Besides, the DC50 at IKZF1 was 222 nM; on IKZF2 (HiBiT assay), 525 nM.

With `O=C1CCC(N2Cc3cc(CNC4CCN(C(=O)c5ccccc5)CC4)ccc3C2=O)C(=O)N1` (stereo not drawn) [Example 57], the values for the Dmax at IKZF1 and on IKZF2 were 77% and 96%, respectively. The DC50 at IKZF1 worked out at 246 nM; at IKZF2 (HiBiT assay) it was 1300 nM.

Turning to `O=C1CCC(N2Cc3cc(CNC4CCC5(CC4)CC5)ccc3C2=O)C(=O)N1` (stereo not drawn) [Example 58], the Dmax was 66% on IKZF1 and 81% on IKZF2. Also, the DC50 at IKZF1 was found to be 50 nM; on IKZF2 (HiBiT assay), 67 nM.

For `O=C1CCC(N2Cc3cc(CNC4CCC5(CCC5)CC4)ccc3C2=O)C(=O)N1` (stereo not drawn) [Example 59], the Dmax at IKZF1 worked out at 62%; on IKZF2, 74%. Further, the DC50 was 50 nM on IKZF1 and 55 nM at IKZF2 (HiBiT assay).

Turning to `O=C1CCC(N2Cc3cc(CNC4CCC5(CC4)COC5)ccc3C2=O)C(=O)N1` (stereo not drawn) [Example 60], the Dmax stood at 55% at IKZF1 and 84% on IKZF2. In addition, the DC50 at IKZF1 came to 403 nM; on IKZF2 (HiBiT assay) it was 401 nM.

As for `O=C1CCC(N2Cc3cc(CNC4CCN(Cc5ccccc5)C(=O)C4)ccc3C2=O)C(=O)N1` (stereo not drawn) [Example 61], the Dmax on IKZF1 amounted to 27%; on IKZF2 it was 29%. For the same compound, the DC50 on IKZF2 (HiBiT assay) was 1400 nM.

As for `O=C1CCC(N2Cc3cc(CNC4CCN(Cc5ccccc5)C(=O)C4)ccc3C2=O)C(=O)N1` (stereo not drawn) [Example 62], at IKZF1, the “IKZF1 Dmax (maximum degradation at the highest concentration tested)” value is on record as 27% and the DC50 was 886 nM. Further, at IKZF2 (HiBiT assay), the “IKZF2 Dmax (maximum degradation at the highest concentration tested)” value is 27% and the DC50 turned out to be 1700 nM.

Consider `N#CC[C@H]1CC[C@H](NCc2ccc3c(c2)CN(C2CCC(=O)NC2=O)C3=O)CC1` (stereo partly drawn) [Example 63], for which the Dmax at IKZF1 came out at 44%; on IKZF2, 91%. Further, the DC50 at IKZF1 was determined as 609 nM; at IKZF2 (HiBiT assay) it was 361 nM.

For `O=C1CCC(N2Cc3cc(CNCc4cc5ccccc5[nH]4)ccc3C2=O)C(=O)N1` (stereo not drawn) [Example 64], the Dmax on IKZF1 is 80%; at IKZF2, 45%. For the same compound, the DC50 at IKZF1 worked out at 61 nM; on IKZF2 (HiBiT assay), 276 nM.

In the case of `O=C1CCC(N2Cc3cc(CN[C@H]4CC[C@](O)(c5ccccc5)CC4)ccc3C2=O)C(=O)N1` (stereo partly drawn) [Example 65], the values for the Dmax on IKZF1 and at IKZF2 were 86% and 90%, respectively. Besides, the figures for the DC50 at IKZF1 and on IKZF2 (HiBiT assay) were 29 nM and 67 nM, respectively.

Regarding `O=C1CCC(N2Cc3cc(CN[C@H]4CC[C@@](O)(c5ccccc5)CC4)ccc3C2=O)C(=O)N1` (stereo partly drawn) [Example 66], the Dmax at IKZF1 was 77%; on IKZF2 it was 83%. For the same compound, the values for the DC50 on IKZF1 and on IKZF2 (HiBiT assay) were 102 nM and 319 nM, respectively.

With `O=C1CCC(N2Cc3cc(CN[C@@H]4CCCC[C@H]4Cc4ccccc4)ccc3C2=O)C(=O)N1` (stereo partly drawn) [Example 67], the Dmax at IKZF1 worked out at 73%; at IKZF2, 75%. The DC50 at IKZF1 was 46 nM; at IKZF2 (HiBiT assay), 160 nM.

The values are drawn from patent US20240124412A1, “IKAROS ZINC FINGER FAMILY DEGRADERS AND USES THEREOF” (Gilead Sciences, Inc., priority 2021, published 2024).
